In PubChem BioAssay (NCI):
“And” between values parts separate entries of the source, which are not always exact repeats. Equal entries are not always repeated.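 Exposure lasted 48 hours, with cells grown in 96-well plates and compounds tested at five concentrations. The concentration for 50% growth inhibition is given as GI50. TGI denotes the concentration required for complete inhibition of growth.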

Legend:
Assay in all cases: NCI tumour cell line growth inhibition, 48 h
[1] = test system: OVCAR-4 ovarian
[2] = test system: HOP-18 NSCLC
[3] = test system: UO-31 renal
[4] = test system: HT29 colon
[5] = test system: SF-268 CNS
[6] = test system: OVCAR-5 ovarian
[7] = test system: HCC-2998 colon
[8] = test system: SK-MEL-2 melanoma
[9] = test system: LOX IMVI melanoma
[10] = test system: CCRF-CEM leukemia
[11] = test system: HL-60(TB) leukemia
[12] = test system: NCI/ADR-RES ovarian
[13] = test system: K-562 leukemia
[14] = test system: DLD-1 colon
[15] = test system: SF-295 CNS
[16] = test system: NCI-H226 lung
[17] = test system: NCI-H23 lung
[18] = test system: UACC-257 melanoma
[19] = test system: P388 leukemia
[20] = test system: NCI-H522 lung
[21] = test system: KM12 colon
[22] = test system: RPMI-8226 leukemia
[23] = test system: RXF 393 renal
[24] = test system: SK-OV-3 ovarian
[25] = test system: DMS 273 small cell lung
[26] = test system: P388/ADR leukemia
[27] = test system: NCI-H460 lung
[28] = test system: SK-MEL-5 melanoma
[29] = test system: A498 renal
[30] = test system: MALME-3M melanoma
[31] = test system: DMS 114 small cell lung
[32] = test system: XF 498 CNS
[33] = test system: MCF7 breast
[34] = test system: HOP-62 NSCLC
[35] = test system: A549 NSCLC
[36] = test system: SF-539 CNS
[37] = test system: HCT-15 colon
[38] = test system: MOLT-4 leukemia
[39] = test system: SW-620 colon
[40] = test system: HCT-116 colon
[41] = test system: M19-MEL melanoma
[42] = test system: UACC-62 melanoma
[43] = test system: SK-MEL-28 melanoma
[44] = test system: HOP-92 NSCLC
[45] = test system: IGROV1 ovarian
[46] = test system: KM20L2 colon
[47] = test system: SNB-75 CNS
[48] = test system: OVCAR-3 ovarian
[49] = test system: U251 CNS
[50] = test system: OVCAR-8 ovarian
[51] = test system: SNB-19 CNS
[52] = test system: COLO 205 colon
[53] = test system: SN12C renal
[54] = test system: SN12K1 renal
[55] = test system: EKVX NSCLC
[56] = test system: SNB-78 CNS
[57] = test system: MDA-N
[58] = test system: DU-145 prostate
[59] = test system: BT-549 breast
[60] = test system: T-47D breast
[61] = test system: CAKI-1 renal
[62] = test system: RXF-631 renal
[63] = test system: MDA-MB-231 breast
[64] = test system: HS 578T breast
[65] = test system: MDA-MB-435
[66] = test system: PC-3 prostate
[67] = test system: ACHN renal
[68] = test system: TK-10 renal

Work on `O=[N+]([O-])c1cccc2c1[nH]c1c(-c3ccccc3)nccc12` yielded a TGI [1] greater than 33200 nM, a TGI [2] of 2820 nM and a TGI [3] of 4220 nM. It also gave a TGI [4] of 10400 nM, a TGI [5] greater than 100000 nM and a TGI [6] greater than 100000 nM. For the same molecule, the TGI [7] was 13900 nM, the TGI [8] was 3000 nM and the TGI [9] was 10700 nM. For the same molecule, the TGI [10] was 21900 nM, the TGI [11] was 4350 nM and the TGI [12] was 4440 nM. For the same molecule, the TGI [13] was greater than 100000 nM, the TGI [14] was greater than 48900 nM and the TGI [15] was 12100 nM. For the same molecule, the TGI [16] was 5330 nM, the TGI [17] was 8480 nM and the TGI [18] was 6290 nM. For the same molecule, the TGI [19] was 9750 nM, the TGI [20] was 4270 nM and the TGI [21] was 12300 nM. It also gave a TGI [22] greater than 100000 nM, a TGI [23] of 12400 nM and a TGI [24] of 7750 nM. For the same molecule, the TGI [25] was 7580 nM, the TGI [26] was 11700 nM and the TGI [27] was greater than 100000 nM. It also gave a TGI [28] of 3460 nM, a TGI [29] of 12900 nM and a TGI [30] of 6430 nM. It also gave a TGI [31] of 5750 nM, a TGI [32] of 11700 nM and a TGI [33] greater than 24800 nM. For the same molecule, the TGI [34] was 5040 nM, the TGI [35] was greater than 42500 nM and the TGI [36] was greater than 69000 nM. It also gave a TGI [37] greater than 38500 nM, a TGI [38] of 4400 nM and a TGI [39] greater than 36900 nM. For the same molecule, the TGI [40] was 11200 nM, the TGI [41] was 6140 nM and the TGI [42] was 9040 nM. It also gave a TGI [43] of 21900 nM, a TGI [44] of 3050 nM and a TGI [45] of 11400 nM. It also gave a TGI [46] of 10800 nM, a TGI [47] of 7590 nM and a TGI [48] of 4450 nM. It also gave a TGI [49] greater than 30300 nM, a TGI [50] of 9320 nM and a TGI [51] greater than 100000 nM. It also gave a TGI [52] of 4230 nM, a TGI [53] greater than 73100 nM and a TGI [54] of 8110 nM. For the same molecule, the TGI [55] was greater than 29500 nM.
`COC1=C(C)C(=O)C2=C(C1=O)C1C3CC4=C(C(=O)C(OC)=C(C)C4=O)C(CNC(=O)C(C)=O)N3C(C#N)C(C2)N1C` (centres undefined) was tested, and the GI50 [2] was 0.212 nM, the GI50 [56] was 0.0579 nM and the TGI [6] was 76.8 nM and 77.6 nM. The GI50 [7] was 0.219 nM, the GI50 [57] was 3.51 nM and the TGI [57] was 26 nM. For the same molecule, the GI50 [58] was 3.3 nM, the TGI [58] was 86.2 nM and the GI50 [9] was 0.0147 nM. The TGI [9] was 0.0874 nM and < 25.1 nM and < 10.5 nM, the TGI [59] was 1.7 nM and the GI50 [60] was 0.553 nM. The TGI [60] was 6.08 nM, the GI50 [61] was 0.00163 nM and the TGI [61] was 126 nM. For the same molecule, the GI50 [12] was 1160 nM, the TGI [12] was 4050 nM and 2760 nM and the GI50 [62] was 0.385 nM. The TGI [63] was 12.7 nM and 15.4 nM, the GI50 [14] was 0.0404 nM and the TGI [14] was 278 nM. For the same molecule, the GI50 [15] was 0.966 nM, the TGI [15] was 253 nM and 383 nM and the GI50 [18] was 0.00576 nM. For the same molecule, the TGI [64] was 2.38 nM, the GI50 [65] was 0.34 nM and the TGI [65] was 1.24 nM and 5.53 nM. The TGI [21] was 31.3 nM and 72.6 nM, the TGI [23] was 16.1 nM and the GI50 [24] was 6.56 nM and 38.2 nM. The TGI [24] was 417 nM and 1550 nM, the GI50 [25] was 0.0259 nM and the TGI [26] was 349 nM. The TGI [66] was 195 nM and 77.8 nM, the GI50 [67] was 3.66 nM and the TGI [67] was 1160 nM and 1230 nM. The TGI [27] was 31.8 nM and 211 nM and 151 nM, the GI50 [29] was 63.4 nM and the GI50 [31] was 0.0215 nM. The GI50 [33] was 0.0742 nM, the TGI [33] was 359 nM and 379 nM and the TGI [68] was 3760 nM. For the same molecule, the TGI [39] was 297 nM and 125 nM, the GI50 [41] was 0.0946 nM and the GI50 [42] was 0.111 nM. For the same molecule, the TGI [42] was 0.825 nM and 7.5 nM, the GI50 [43] was 0.169 nM and the TGI [44] was 4.25 nM and 16.2 nM. The TGI [45] was 199 nM and 94.8 nM, the GI50 [46] was 2.67 nM and the TGI [46] was 246 nM and 1030 nM. The TGI [48] was 5.33 nM and 41.4 nM and < 46.8 nM, the TGI [51] was 1450 nM and 958 nM and the TGI [53] was 348 nM and 144 nM.
